According to US20120122727A1, “IN VITRO METHOD FOR PREDICTING WHETHER A COMPOUND IS GENOTOXIC IN VIVO” (priority 2009, published 2012):

System: primary mouse hepatocytes
Assay: Gene expression (Affymetrix Mouse Genome 430 2.0) in primary mouse hepatocytes, true vs false GTX, 24 h and 48 h
Details: log2, corrected for vehicle control

CC(=O)Nc1ccc2c(c1)Cc1ccccc1-2 [2-AAF, 2-Acetylaminofluorene]
Gene expression data AF000969 (Cadps2) (24 h average): −0.5371 | Gene expression data AF022072 (Grb10) (24 h average): 0.5527 | Gene expression data AF065917 (Lif) (24 h average): −0.1242 | Gene expression data AF204959 (Cyp3a25 /// LOC622249) (24 h average): 0.2152 | Gene expression data AF297615 (Ggta1) (24 h average): 0.03187 | Gene expression data AI594683 (Dmn) (24 h average): −0.2452 | Gene expression data AI596632 (Ptprg /// LOC632664) (24 h average): −0.0981 | Gene expression data AI987929 (Ndrg1) (24 h average): 0.8432 | Gene expression data AK004419 (Fbxl17) (24 h average): −0.168 | Gene expression data AK005731 (1700007K13Rik) (24 h average): 0.08277 | Gene expression data AK007766 (1810044A24Rik) (24 h average): 0.01003 | Gene expression data AK007854 (1810053B23Rik) (24 h average): −0.9008 | Gene expression data AK009736 (Gpr137b /// LOC664862 /// LOC673335) (24 h average): −0.00723 | Gene expression data AK010447 (Smyd3) (24 h average): −0.1751 | Gene expression data AK014608 (4632434l11Rik) (24 h average): −0.09823 | Gene expression data AK019979 (2610528E23Rik) (24 h average): 0.3248 | Gene expression data AV095209 (Mthfd1l) (24 h average): 0.4403 | Gene expression data AV141095 (1110033M05Rik) (24 h average): −0.2881 | Gene expression data AV173571 (1700106N22Rik) (24 h average): −0.04133 | Gene expression data AV219418 (Ldhb) (24 h average): −0.3695 | Gene expression data AV223474 (Zdhhc14) (24 h average): −0.4459 | Gene expression data AV298304 (Homez) (24 h average): −0.1831 | Gene expression data AV327248 (Zfp365 /// LOC674611) (24 h average): 0.0668 | Gene expression data AV377066 (9130221J18Rik) (24 h average): −0.6586 | Gene expression data AW240761 (Tbc1d5) (24 h average): −0.0924 | Gene expression data AW543460 (Pard3) (24 h average): −0.3156 | Gene expression data AW543723 (24 h average): 0.1065 | Gene expression data AW986246 (Maoa) (24 h average): 0.01853 | Gene expression data BB027848 (4732466D17Rik) (24 h average): −0.252 | Gene expression data BB043558 (9230114K14Rik) (24 h average): −0.1205 | Gene expression data BB275142 (AW456874) (24 h average): −0.02303 | Gene expression data BB308836 (Ppm1l) (24 h average): −0.1499 | Gene expression data BB318221 (Zdhhc14) (24 h average): −0.411 | Gene expression data BB463610 (4632434l11Rik) (24 h average): −0.3778 | Gene expression data BB526605 (Mipol1) (24 h average): 0.3466 | Gene expression data BB770528 (Rai2) (24 h average): −0.5052 | Gene expression data BB821363 (Scfd2) (24 h average): −0.1216 | Gene expression data BC004827 (Psat1) (24 h average): 0.2797 | Gene expression data BC008626 (Icam1) (24 h average): −0.6353 | Gene expression data BC010462 (BC010462) (24 h average): −0.1475 | Gene expression data BC012247 (Dcxr) (24 h average): −0.08253 | Gene expression data BC012260 (Psmf1) (24 h average): −0.646 | Gene expression data BC015270 (Hist2h3c2) (24 h average): −0.1327 | Gene expression data BC016073 (Cdkal1) (24 h average): −0.1464 | Gene expression data BC016265 (Ube2e2) (24 h average): −0.3984 | Gene expression data BC019882 (Acaa1b) (24 h average): 1.3218 | Gene expression data BC025501 (Aaas) (24 h average): −0.1475 | Gene expression data BC025837 (Sbk1) (24 h average): −0.2976 | Gene expression data BC025915 (Cova1) (24 h average): −0.1568 | Gene expression data BC026422 (Tgm1) (24 h average): −0.1664 | Gene expression data BF719766 (Thyn1) (24 h average): −0.0442 | Gene expression data BG065754 (Ccng1) (24 h average): 0.0569 | Gene expression data BG066903 (Kif16b) (24 h average): −0.2125 | Gene expression data BG069873 (Gnb1l) (24 h average): −0.2747 | Gene expression data BG070887 (Gtdc1) (24 h average): −0.01607 | Gene expression data BG076151 (Ppm1d) (24 h average): −0.1219 | Gene expression data BG261907 (Large) (24 h average): −0.2502 | Gene expression data BI651416 (Cdc42bpg) (24 h average): 0.1552 | Gene expression data BI660702 (Ell3) (24 h average): 0.1219 | Gene expression data BM198879 (Ercc5) (24 h average): −0.2382 | Gene expression data BM230508 (A030007D23Rik) (24 h average): 0.282 | Gene expression data NM_007987 (Fas) (24 h average): 0.06923 | Gene expression data NM_008522 (Ltf) (24 h average): 0.1277 | Gene expression data NM_008576 (Abcc1) (24 h average): 0.3321 | Gene expression data NM_011176 (St14) (24 h average): −0.03387 | Gene expression data NM_011316 (Saa4) (24 h average): −0.3157 | Gene expression data NM_012006 (Acot1) (24 h average): 1.9403 | Gene expression data NM_013866 (Zfp385) (24 h average): −0.136 | Gene expression data NM_018770 (Igsf4a) (24 h average): −0.2065 | Gene expression data NM_021451 (Pmaip1) (24 h average): −0.7054 | Gene expression data NM_025770 (Atg10) (24 h average): 0.01663 | Gene expression data NM_028803 (Gbe1) (24 h average): −0.2716 | Gene expression data NM_030697 (Ankrd47) (24 h average): −0.252 | Gene expression data NM_053168 (Trim11) (24 h average): −0.2676 | Gene expression data NM_134188 (Acot2) (24 h average): 0.597 | Gene expression data Y15910 (Diap2) (24 h average): −0.366 | Gene expression AA561726 average (48 h): −0.7419 | Gene expression AF000969 average (48 h): −0.8319 | Gene expression AF022072 average (48 h): 0.0482 | Gene expression AF033112 average (48 h): −0.03947 | Gene expression AF055573 average (48 h): −0.2895 | Gene expression AF069954 average (48 h): 0.3518 | Gene expression AF297615 average (48 h): −0.6791 | Gene expression AF335325 average (48 h): −0.3088 | Gene expression AI594683 average (48 h): −0.05213 | Gene expression AI747296 average (48 h): −0.5003 | Gene expression AK005731 average (48 h): 0.01113 | Gene expression AK007854 average (48 h): 1.4303 | Gene expression AK010447 average (48 h): −0.3256 | Gene expression AK010738 average (48 h): 0.1851 | Gene expression AK014608 average (48 h): −0.01987 | Gene expression AK017734 average (48 h): 0.0451 | Gene expression AK018383 average (48 h): 0.2303 | Gene expression AK019979 average (48 h): −0.5099 | Gene expression AV095209 average (48 h): −0.3718 | Gene expression AV141095 average (48 h): −0.5829 | Gene expression AV173869 average (48 h): −0.3782 | Gene expression AV216768 average (48 h): −0.6814 | Gene expression AV219418 average (48 h): 0.7839 | Gene expression AV221299 average (48 h): 0.6759 | Gene expression AV246296 average (48 h): −0.54 | Gene expression AV251625 average (48 h): 0.07103 | Gene expression AV254764 average (48 h): −0.006467 | Gene expression AV327248 average (48 h): −0.09177 | Gene expression BB009155 average (48 h): −0.5851 | Gene expression BB027848 average (48 h): 0.5378 | Gene expression BB043558 average (48 h): 0.196 | Gene expression BB046347 average (48 h): 0.2178 | Gene expression BB140436 average (48 h): 0.4693 | Gene expression BB204486 average (48 h): −0.6445 | Gene expression BB223872 average (48 h): 0.3216 | Gene expression BB246912 average (48 h): −0.2264 | Gene expression BB275142 average (48 h): 0.1102 | Gene expression BB458460 average (48 h): −0.3368 | Gene expression BB463610 average (48 h): 0.0872 | Gene expression BB730977 average (48 h): −0.9937 | Gene expression BB743970 average (48 h): 0.7664 | Gene expression BB770528 average (48 h): −0.5594 | Gene expression BB781615 average (48 h): −0.1164 | Gene expression BC003284 average (48 h): 0.02563 | Gene expression BC004827 average (48 h): −0.2015 | Gene expression BC005552 average (48 h): −0.126 | Gene expression BC006713 average (48 h): 0.4411 | Gene expression BC010318 average (48 h): −0.02213 | Gene expression BC012247 average (48 h): 0.6286 | Gene expression BC012955 average (48 h): 0.05073 | Gene expression BC013893 average (48 h): 0.4936 | Gene expression BC017615 average (48 h): −0.5229 | Gene expression BC019379 average (48 h): −1.215 | Gene expression BC019882 average (48 h): 1.577 | Gene expression BC021352 average (48 h): −1.127 | Gene expression BC022148 average (48 h): 0.456 | Gene expression BC025169 average (48 h): −0.2222 | Gene expression BC026131 average (48 h): −0.3489 | Gene expression BC027026 average (48 h): 0.8063 | Gene expression BC027121 average (48 h): −0.1341 | Gene expression BC027185 average (48 h): 0.4588 | Gene expression BE956581 average (48 h): 0.1808 | Gene expression BF719766 average (48 h): 0.2652 | Gene expression BG065754 average (48 h): 0.3738 | Gene expression BG066491 average (48 h): −1.541 | Gene expression BG076151 average (48 h): −0.3358 | Gene expression BG076333 average (48 h): −0.1306 | Gene expression BG797099 average (48 h): −0.06173 | Gene expression BG967046 average (48 h): 0.0391 | Gene expression BI651416 average (48 h): 0.3502 | Gene expression BI966443 average (48 h): 0.1201 | Gene expression BM198879 average (48 h): −0.2887 | Gene expression BM200015 average (48 h): 0.5127 | Gene expression BM230508 average (48 h): 0.0745 | Gene expression BM936480 average (48 h): 0.9169 | Gene expression BQ174991 average (48 h): −0.3426 | Gene expression L21027 average (48 h): −0.729 | Gene expression NM_007556 average (48 h): 0.02703 | Gene expression NM_007980 average (48 h): 1.503 | Gene expression NM_007987 average (48 h): 0.516 | Gene expression NM_008522 average (48 h): 0.1967 | Gene expression NM_008935 average (48 h): 0.02783 | Gene expression NM_009897 average (48 h): −0.003733 | Gene expression NM_011075 average (48 h): −0.5522 | Gene expression NM_011176 average (48 h): −0.2632 | Gene expression NM_011316 average (48 h): 0.4369 | Gene expression NM_012006 average (48 h): 2.771 | Gene expression NM_013642 average (48 h): −0.6535 | Gene expression NM_013738 average (48 h): −0.2396 | Gene expression NM_013929 average (48 h): −0.04163 | Gene expression NM_018881 average (48 h): 0.9061 | Gene expression NM_019738 average (48 h): −0.193 | Gene expression NM_030697 average (48 h): −0.4783 | Gene expression NM_053122 average (48 h): −0.106 | Gene expression NM_134147 average (48 h): 0.04213 | Gene expression NM_134188 average (48 h): 0.9088 | Gene expression X62701 average (48 h): −0.356
